This is an account of results in PMC9317966, “Structure-function analysis of the AMPK activator SC4 and identification of a potent pan AMPK activator” (Biochemical Journal, 2022).

Assay in all cases: Radiolabel SAMS kinase assay, GST-AMPK from HEK293T/17 cells immobilised on glutathione-Sepharose
Holding throughout (type): biochemical

For one test, the target named is T1, human GST-AMPK α1β1γ1 (Homo sapiens, UniProt Q13131+Q9Y478).
T1 construct: triply transfected with full-length AMPK α1 or α2 (NH2-terminal GST fusion, pDEST27 vector); full-length AMPK α1 or α2 (NH2-terminal GST fusion, pDEST27 vector), β1 or β2 (COOH-terminal FLAG fusion, pcDNA3.1 vector); FLAG (C); made in house; host or cells: HEK293T/17 cells, transient triple transfection
T1 sequence (Q13131 whole entry, the tested form may be a part): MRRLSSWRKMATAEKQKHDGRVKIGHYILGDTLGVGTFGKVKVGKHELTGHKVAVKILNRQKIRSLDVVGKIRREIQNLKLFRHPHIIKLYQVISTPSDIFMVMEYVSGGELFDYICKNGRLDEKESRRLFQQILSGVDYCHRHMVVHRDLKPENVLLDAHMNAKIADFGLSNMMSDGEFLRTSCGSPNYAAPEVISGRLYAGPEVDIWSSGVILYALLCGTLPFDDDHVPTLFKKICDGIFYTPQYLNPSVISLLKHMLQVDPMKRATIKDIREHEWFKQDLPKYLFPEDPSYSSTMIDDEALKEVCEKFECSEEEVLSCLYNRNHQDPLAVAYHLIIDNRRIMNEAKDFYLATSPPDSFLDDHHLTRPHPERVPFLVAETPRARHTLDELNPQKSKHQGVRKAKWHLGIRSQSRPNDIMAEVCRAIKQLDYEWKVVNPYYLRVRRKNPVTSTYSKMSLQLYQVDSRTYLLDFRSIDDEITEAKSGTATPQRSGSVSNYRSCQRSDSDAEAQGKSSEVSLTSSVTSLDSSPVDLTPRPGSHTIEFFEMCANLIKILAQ
T1 sequence (Q9Y478 whole entry, the tested form may be a part): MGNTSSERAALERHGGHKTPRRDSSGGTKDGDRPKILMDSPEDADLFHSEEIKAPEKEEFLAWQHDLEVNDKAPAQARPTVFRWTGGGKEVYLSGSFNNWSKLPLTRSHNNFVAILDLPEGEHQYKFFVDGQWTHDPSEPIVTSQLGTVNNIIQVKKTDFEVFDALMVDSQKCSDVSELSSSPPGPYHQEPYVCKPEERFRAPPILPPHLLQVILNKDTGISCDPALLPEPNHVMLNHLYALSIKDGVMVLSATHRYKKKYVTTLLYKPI
T1 sequence (P54619 whole entry partner, the tested form may be a part): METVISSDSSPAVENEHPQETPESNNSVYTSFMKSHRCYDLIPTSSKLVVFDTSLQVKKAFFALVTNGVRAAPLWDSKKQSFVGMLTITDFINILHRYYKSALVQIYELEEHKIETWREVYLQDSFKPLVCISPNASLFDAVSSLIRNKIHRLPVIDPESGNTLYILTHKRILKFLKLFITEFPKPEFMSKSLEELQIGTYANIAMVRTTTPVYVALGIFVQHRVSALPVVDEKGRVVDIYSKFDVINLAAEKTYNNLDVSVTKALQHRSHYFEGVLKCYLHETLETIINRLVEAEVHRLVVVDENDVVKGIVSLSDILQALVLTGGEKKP
The following applies: for Max. fold activation: immobilised α1β1γ1; for EC50: immobilised α1β1γ1, 0–30 µM activator. From the text:
We generated a series of compounds to investigate whether modification of the SC4 2-hydroxybiphenyl LHS fragment affects isoform selectivity, some of which (MSG008-MSG011) are presented in Table 1. We also synthesised compound MSG012 (example I-3-54 [32]), which was reported to activate α2β2γ1 with ∼100-fold greater potency compared with α1β1γ1. MSG012 differs from SC4 by substitution of the 2-hydroxyphenyl LHS fragment with 3-cyclohexen-4-yl-1-carboxylic acid, and 2-methylbenzoic acid RHS fragment with 1-hydroxy-N,N-dimethylcyclohexan-4-yl-1-carboxamide. Our initial screen involved measuring the activity of recombinant human GST-AMPK complexes expressed in HEK293T/17 cells and immobilised on glutathione-Sepharose (Supplementary Figure S1). Enzyme activity was measured by radiolabelling the synthetic SAMS peptide substrate in the absence or presence of 1 µM compound. Consistent with our previous characterisation, SC4 activated α1β1γ1, α2β1γ1 and α2β2γ1 >2.3-fold, and weakly activated α1β2γ1 1.3-fold (Figure 1A). […] The γ isoform had little influence on AMPK activation by MSG011 as most γ2 and γ3 complexes were activated >2.2-fold at 1 µM, with α1β2γ2 being the only exception (1.6-fold activation). […] Accordingly, MSG010, MSG011 and MSG012 can be classified as pan AMPK activators.
Adherent HEK293T/17 cells at ∼50% confluency were triply transfected with full-length AMPK α1 or α2 (NH2-terminal GST fusion, pDEST27 vector), β1 or β2 (COOH-terminal FLAG fusion, pcDNA3.1 vector), and γ1, γ2 or γ3 (NH2-terminal HA fusion, pMT2 vector) in the presence of FuGENE HD transfection reagent (Promega) as per the manufacturers protocol. Cells were harvested 48 hours post-transfection by first gently washing in ice cold phosphate buffered saline (PBS; Sigma–Aldrich), then scraping in ice cold lysis buffer (50 mM TRIS pH 7.5, 150 mM NaCl, 10% (v/v) glycerol, 50 mM NaF, 5 mM sodium pyrophosphate, 1% (v/v) Triton X-100, cOmplete protease inhibitor cocktail). Lysates were clarified by centrifugation (16 000g, 3 min, 4°C), flash frozen in liquid N2 and stored at −80°C until analysis. For radioactive kinase assays, AMPK was immobilised on glutathione Sepharose 4B resin (GE Healthcare) by incubation with lysates for 1.5 h at 4°C. Following centrifugation (1000g, 3 min, 4°C), the resin was washed twice in purification buffer (50 mM HEPES pH 7.4, 150 mM NaCl, 10% (v/v) glycerol, 0.02% (v/v) Tween-20), once in 50 mM HEPES pH 7.4 with 0.02% (v/v) Tween-20, then resuspended to a 50% slurry with 50 mM HEPES pH 7.4 and 10 µl added to the activity assays. For in solution kinase assays, α1β1γ1 AMPK was eluted from glutathione-Sepharose by incubating with purification buffer supplemented with 40 mM reduced glutathione (Sigma–Aldrich).
AMPK activity was determined by phosphorylation of the SAMS peptide (Purar Chemicals, sequence: NH2-HMRSAMSGLHLVKRR-COOH) in a 25 µl reaction volume containing 100 µM SAMS peptide, 5 mM MgCl2, 200 µM ATP, [γ-^32P]-ATP (PerkinElmer) and assay buffer (50 mM HEPES pH 7.4, 1 mM DTT and 0.02% (v/v) Tween-20) and purified AMPK. Phosphotransferase activity was conducted at 30°C for 10 min and reactions were quenched by spotting 15 µl onto phosphocellulose ion-exchange chromatography paper (made in-house), followed by repeated washes in 1% H3PO4 (Merck Millipore). Ultima Gold liquid scintillation fluid (5 ml; PerkinElmer) was added to vials containing dried phosphocellulose papers, and the level of ^32P-transfer to the SAMS peptide was determined using a Tri-Carb 2900TR liquid scintillation counter (PerkinElmer).

Another test addresses T2, human GST-AMPK α2β1γ1 (Homo sapiens, UniProt P54646+Q9Y478).
T2 construct: triply transfected with full-length AMPK α1 or α2 (NH2-terminal GST fusion, pDEST27 vector); full-length AMPK α1 or α2 (NH2-terminal GST fusion, pDEST27 vector), β1 or β2 (COOH-terminal FLAG fusion, pcDNA3.1 vector); FLAG (C); made in house; host or cells: HEK293T/17 cells, transient triple transfection
The settings on record: for Max. fold activation: immobilised α2β1γ1; for EC50: immobilised α2β1γ1, 0–30 µM activator.

A further test concerns the target T3, human GST-AMPK α2β2γ1 (Homo sapiens, UniProt O43741+P54646).
T3 construct: triply transfected with full-length AMPK α1 or α2 (NH2-terminal GST fusion, pDEST27 vector); full-length AMPK α1 or α2 (NH2-terminal GST fusion, pDEST27 vector), β1 or β2 (COOH-terminal FLAG fusion, pcDNA3.1 vector); FLAG (C); made in house; host or cells: HEK293T/17 cells, transient triple transfection
The following applies: for Max. fold activation: immobilised α2β2γ1; for EC50: immobilised α2β2γ1, 0–30 µM activator.

T2 sequence (P54646 whole entry, the tested form may be a part): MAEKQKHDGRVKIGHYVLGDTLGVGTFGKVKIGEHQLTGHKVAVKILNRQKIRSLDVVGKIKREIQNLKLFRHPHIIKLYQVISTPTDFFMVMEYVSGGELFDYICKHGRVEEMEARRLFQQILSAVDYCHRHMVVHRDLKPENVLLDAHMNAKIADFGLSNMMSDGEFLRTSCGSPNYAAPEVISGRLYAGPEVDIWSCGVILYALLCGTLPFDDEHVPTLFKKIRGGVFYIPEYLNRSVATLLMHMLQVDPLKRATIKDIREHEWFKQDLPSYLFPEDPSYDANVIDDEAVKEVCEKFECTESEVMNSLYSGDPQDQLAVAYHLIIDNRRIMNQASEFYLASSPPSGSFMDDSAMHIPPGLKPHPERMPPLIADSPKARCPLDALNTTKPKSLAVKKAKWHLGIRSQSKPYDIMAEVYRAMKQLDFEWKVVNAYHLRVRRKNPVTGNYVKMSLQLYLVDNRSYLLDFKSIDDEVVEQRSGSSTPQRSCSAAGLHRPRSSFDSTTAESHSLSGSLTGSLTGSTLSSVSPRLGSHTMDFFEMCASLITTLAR
T2 sequence (Q9Y478 whole entry, the tested form may be a part): as the sequence (Q9Y478 whole entry, the tested form may be a part) above
T2 sequence (P54619 whole entry partner, the tested form may be a part): as the sequence (P54619 whole entry partner, the tested form may be a part) above
T3 sequence (P54646 whole entry, the tested form may be a part): as the sequence (P54646 whole entry, the tested form may be a part) above
T3 sequence (O43741 whole entry, the tested form may be a part): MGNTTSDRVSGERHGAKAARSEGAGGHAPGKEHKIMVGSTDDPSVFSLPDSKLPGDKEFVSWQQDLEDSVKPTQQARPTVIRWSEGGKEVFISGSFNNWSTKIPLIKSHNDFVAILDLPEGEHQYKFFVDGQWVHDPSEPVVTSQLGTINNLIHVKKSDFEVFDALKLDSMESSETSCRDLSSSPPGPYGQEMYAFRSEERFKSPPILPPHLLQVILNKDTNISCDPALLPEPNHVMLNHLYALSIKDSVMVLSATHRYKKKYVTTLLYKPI
T3 sequence (P54619 whole entry partner, the tested form may be a part): as the sequence (P54619 whole entry partner, the tested form may be a part) above

For `O[C@@H]1CO[C@H]2[C@@H]1OC[C@H]2Oc1nc2nc(-c3ccc(-c4ccccc4)cc3)c(Cl)cc2[nH]1` [MK-8722, reference compound], the Max. fold activation at human GST-AMPK α1β1γ1 stood at 2.2 fold; at human GST-AMPK α2β1γ1, 7.8 fold; on human GST-AMPK α2β2γ1, 5.8 fold. In addition, the concentration for a half-maximal effect (EC50) was 1210 nM at human GST-AMPK α1β1γ1, 3250 nM on human GST-AMPK α2β1γ1 and 5600 nM on human GST-AMPK α2β2γ1.

As for `CC(=O)NC1CC=C(c2ccc(-c3nc4nc(Oc5ccc(C)c(C(=O)O)c5)[nH]c4cc3Cl)cc2)CC1` (stereo not shown) [MSG011, 5-((5-(4′-Acetamido-2′,3′,4′,5′-tetrahydro-[1,1′-biphenyl]-4-yl)-6-chloro-1H-imidazo[4,5-b]pyridin-2-yl)oxy)-2-methylbenzoic acid], the “fold AMPK activation relative to vehicle” value on human GST-AMPK α1β1γ1 (1 µM compound) is listed as above 2.2 fold. Besides, the results for the Max. fold activation at human GST-AMPK α1β1γ1, on human GST-AMPK α2β1γ1 and on human GST-AMPK α2β2γ1 were 3.1 fold, 7.5 fold and 4.0 fold, respectively. In addition, the results for the concentration giving a half-maximal response (EC50) at human GST-AMPK α1β1γ1, at human GST-AMPK α2β1γ1 and on human GST-AMPK α2β2γ1 were 140 nM, 553 nM and 473 nM, respectively.
